# Marks after values point to notes of the source that are not given here.
# Key:
# [1] = test system: C57BL mice; assay: Acute toxicity tests in healthy C57BL mice; format: in vivo; details: observed 24 hrs
# Protocol: The acute toxicity was assessed by treating BALB/c or C57BL mice with a single intraperitoneal (i.p.) or endovenous (e.v.) administration of different amounts, i.e. 3.125, 6.25, 12.5, 25, 50, 100 and 200 mg/kg of tested compounds.
# To preliminarily establish the toxicity profile of CP, acute and repeat-dose toxicity studies were performed in BALB/c mice and in C57BL mice.
# [2] = test system: L1210 murine leukemia; assay: Antitumor efficacy in murine leukemia; format: in vivo; details: established animal leukaemia
# Protocol: The detection of drug uptake by tumor cells in animal models clearly attest that CP efficiently and selectively accumulates in the solid tumor mass.
# The antitumor efficacy of CP was evaluated in L1210 murine leukemia and in mouse Lewis Lung carcinoma (LLC).
# [3] = test system: human colon adenocarcinoma cells resistant (HCT-116 OXP) to OXP
# [4] = test system: CDDP resistant and OXP resistant human cancer cells
smiles,measurement,setting,value
"F[P-](F)(F)(F)(F)F.OC[P+](CO)(CO)[Cu-3]([P+](CO)(CO)CO)([P+](CO)(CO)CO)[P+](CO)(CO)CO [CP, [Cu(thp)4][PF6]]",LD50,[1]; single e.v. administration,115^b mg/kg
same,LD50,[1]; single i.p. administration,125^a mg/kg
same,antitumor efficacy against animal leukaemia,[2],failed to show significant antitumor efficacy
same,IC50,"[3]; HCT-116 OXP (OXP resistant), MTT test, 72 h, probit analysis",1.9 ± 0.7 µM
same,R.F. (Resistant factor),[3]; IC50 resistant/parent line: HCT-116 OXP / HCT-116,1.4
same,IC50 fold lower than the reference metallodrugs,"[4]; Table 2 cell lines, maximum",up to 15 fold
same,antitumor activity levels on sensitive versus resistant cell lines,[4]; sensitive and resistant cell line pairs,very similar

# From patent publication US9114149B2, “[CU(thp)4]n[X]-n compounds for the treatment of a broad range of human solid tumors, including refractory tumors” (Universita Degli Studi Di Padova, priority 2011, dated 2015)
